In patent US9388163B2, “Multifunctional radical quenchers for the treatment of mitochondrial dysfunction” (Arizona Board of Regents, a Body Corporate of the State of …, priority 2011, dated 2016):

Tests used:
FRDA lymphocyte = assay: Mitochondrial bioenergetics assessment: total cellular ATP content; type: cell-based; settings: for cellular ATP levels: after forty hours, at lower concentration (FIG. 3)
Protocol: XI. Mitochondrial Bioenergetics Assessment
The use of CoQ10 analogues and methylene blue analogues to normalize and restore the respiratory chain activities provides valuable therapeutic approach for mitochondrial diseases. The reductions of mitochondrial respiratory chain activity in Friedreich ataxia (FRDA) patients have been reported. The efficiency of oxidative phosphorylation was evaluated in FRDA lymphocyte (GM15850) in presence of tested CoQ10 analogues and methylene blue analogues by measuring total cellular ATP content using (ViaLight®-Plus ATP monitoring reagent kit, Lonza).
FRDA lymphocyte cell lines were obtained from Coriell Cell Repositories. FRDA lymphocytes were cultured under glucose-free media supplemented with galactose for two weeks to force energy production predominantly through oxidative phosphorylation rather than glycolysis. Lymphocytes were cultured in RPMI 1640 medium glucose-free supplemented with 25 mM galactose, 2 mM glutamine and 1% penicillin-streptomycin, and 10%, dialyzed fetal bovine serum FBS (<0.5 μg/mL). Briefly, lymphocytes (2×10^5 cell/mL), were plated (1 mL in 12-well plates) and treated with the test compounds at final concentrations of 50, 125. […] Cells were transferred (100 μL) to 96-well microtiter black-walled cell culture plates. The total intracellular ATP level was measured in a luminator (Clarity™ luminescence microplate reader) with the ATP Bioluminescence Assay Kit (ViaLight®-Plus ATP monitoring reagent kit, Lonza) following the manufacturer's instructions. Carbonyl cyanide-p-trifluormethoxy-phenylhydrazone (FCCP) and oligomycin were used as control for inhibition of ATP synthesis.

[1] = James et al. (2005); cited from earlier work
[2] = test system: bovine heart mitochondrial complex (I, III, IV); assay: NADH oxidase inhibition assay (beef heart submitochondrial particles); type: biochemical
Protocol: X. NADH Oxidase Inhibition Assay
Beef heart mitochondria were obtained by a large-scale procedure. Inverted submitochondrial particles (SMP) were prepared by the method of Matsuno-Yagi and Hatefi (J. Biol. Chem. 260 (1985), p. 14424), and stored in a buffer containing 0.25 M sucrose and 10 mM Tris-HCl (pH 7.4) at −80° C. Inhibitory effects of compounds on bovine heart mitochondrial complex (I, III, IV) were evaluated. Maximal dimethyl sulfoxide concentration never exceeded 2% and had no influence on the control enzymatic activity. Beef heart SMP were diluted to 0.5 mg/mL. The enzymatic activities were assayed at 30° C. and monitored spectrophotometrically with a Beckman Coulter DU-530 (340 nm, ε=6.22 mM^−1 cm^−1). NADH oxidase activity was determined in a reaction medium (2.5 mL) containing 50 mM Hepes, pH 7.5, containing 5 mM MgCl2. The final mitochondrial protein concentration was 30 μg/mL. After the pre-equilibration of SMP with inhibitor for 5 min, the initial rates were calculated from the linear portion of the traces.

CEM leukemia cells = assay: Suppression of ROS production (DCFH-DA, flow cytometry) in DEM-treated cells; type: cell-based; settings: CEM cells treated with DEM, untreated control 100, treated control 0
Protocol: (§1) Leukemic CEM cells (ATCC®, catalogue number CRL-2264) were cultured in RPMI (GIBCO, Grand island, NY, USA) with 10% FBS (Fisher Scientific, TX, USA), 2 mM glutamine (HyClone, South Logan, Utah, USA) and 1% penicillin-streptomycin mix antibiotics (Cellgro, Manassas, Va., USA) supplements. Cells were maintained in the log phase at a concentration of between 1×10^5 and 1×10^6 cells/mL.
Cellular ROS production can be monitored using 2′,7′-dichlorodihydrofluorescein diacetate (DCFH-DA) (LeBel et al. (1992) Chem. Res. Toxicol. 5, 227-231) (Molecular Probes, Eugene, Oreg., USA), a membrane permeable and oxidant-sensitive fluorescent dye. DCFH-DA is a non-fluorescent derivative of fluorescein that emits fluorescence after being oxidized by hydrogen peroxide and other ROS. The emitted fluorescence is directly proportional to the concentration of hydrogen peroxide. DCFH-DA is nonionic and nonpolar and is easily taken up by cells. Once inside the cell, DCFH-DA is hydrolyzed by cellular esterases to non-fluorescent DCFH which traps the dye in the cell. In the presence of ROS including hydrogen peroxide, DCFH is oxidized to the highly fluorescent compound dichlorofluorescein (DCF). The intracellular DCF fluorescence is used as an index of cellular ROS production.
Cellular oxidative stress was induced by pharmacological depletion of glutathione (GSH) using the chemical diethylmaleate (DEM). […] The compounds tested were prepared by first making stock solutions (1 mM) in dimethylsulfoxide (DMSO). Cells were treated with 5 mM DEM for 30 minutes and collected by centrifugation at 300×g for 3 min and then washed twice with Phosphate Buffer Saline (PBS) (Invitrogen, N.Y., USA). Cells were re-suspended in PBS buffer+10 mM glucose and incubated at 37° C. in the dark for 20 min with 10 μM DCFH-DA. Cells were collected by centrifugation at 300×g for 3 min and then washed twice with PBS buffer. The samples were analyzed immediately by flow cytometry (Becton-Dickinson FACS Caliber), (Cell Quest software, BD Biosciences) using 488 nm excitation laser and FL1-H channel 538 nm emission filter. In each analysis, 10,000 events were recorded after cell debris were electronically gated out. Results obtained were verified by running duplicates and repeating experiments N=3 independent experiments. Authentic hydrogen peroxide was used as a positive control.

FRDA cell line = assay: Trypan blue exclusion cell viability assay, DEM-stressed cells; type: cell-based; settings: FRDA cells stressed with DEM
Protocol: as §1, with “Friedreich's Ataxia lymphocytes and control” for “Leukemic CEM”, “(Coriell,” for “(ATCC®,”, “[…], respectively)” for “CRL-2264)”, “15%” for “10%”
V. Trypan Blue Cell Viability Assay
Cell viability determined by trypan blue exclusion assay: This technique was used to assess the cytoprotective effects of the invention compounds in cultured cells pharmacologically treated to induce cell death by GSH depletion. DEM was used to deplete cellular GSH and induce oxidative stress. The viability of DEM-treated cells was determined by their ability to exclude the dye trypan blue. Viable cells exclude trypan blue; whereas, non-viable cells take up the dye and stain blue. Briefly, cells were seeded at a density of 1×10^6 cells/mL and treated with different concentrations of the invention compounds. Cells were incubated at 37° C. in a humidified atmosphere of 5% CO2 in air for three hours with 5 mM DEM. Cell viability was determined by staining cells with 0.4% trypan blue using a hemocytometer. At least 500 cells were counted for each experimental group. At the time of assay, >95% of DEM-treated cells were trypan blue positive; whereas, in non-DEM treated control cell cultures >95% cells were viable. Cell viability was expressed as the percentage of control. Data are expressed as means±S.E.M (n=3).

leukemia CEM lymphocytes = assay: Suppression of lipid peroxidation (C11-BODIPY 581/591, FACS) in DEM-treated cells; type: cell-based; settings: CEM cells treated with DEM, untreated control 100, treated control 0
Protocol: as §1
Measurement of C11-BODIPY^581/591 Oxidation in Cell Culture
Lipid peroxidation in cells was detected by utilizing the oxidant-sensitive lipophilic probe C11 BODIPY^581/591. […] Cells were treated with 500 nM C11 BODIPY^581/591 in phenol red-free RPMI-1640 media and incubated at 37° C. in the dark for 30 minutes. The cells were washed twice with phosphate buffered saline and oxidative stress was induced with 5 mM DEM in phenol red-free RPMI-1640 media for 90 minutes. Treated cells were collected by centrifugation at 300×g for 3 minutes and then washed twice with phosphate buffered saline. Cells were re-suspended in 250 μL of phosphate buffered saline and were analyzed by FACS (FACS Calibur flow cytometer, Becton Dickinson) to monitor the change in intensity of the C11 BODIPY^581/591 green (oxidized) fluorescence signal.

For `CN(C)c1ccc2nc3ccc(=[N+](C)C)cc-3sc2c1` [methylene blue, reference compound], the “cellular ATP levels” value (FRDA lymphocyte) was “significantly increased cellular ATP levels”.
In the case of `CN(C)c1ccc2nc3ccc(=O)cc-3sc2c1` [CPD-18, 7-(dimethylamino)-3H-phenothiazin-3-one], the “cellular ATP levels” value (FRDA lymphocyte) is reported as “significantly increased cellular ATP levels” and the “maintaining ATP levels, compared with methylene blue” value (FRDA lymphocyte; at higher concentrations) is reported as “superior to methylene blue”.
For `COC1=C(OC)C(=O)C(C/C=C(\C)CC/C=C(\C)CC/C=C(\C)CC/C=C(\C)CC/C=C(\C)CC/C=C(\C)CC/C=C(\C)CC/C=C(\C)CC/C=C(\C)CCC=C(C)C)=C(C)C1=O` [coenzyme Q10], the “calculated octanol-water partition coefficient” value [1] is listed as > 10^20.
In the case of `CCCCCCCCCCCCCCCCc1c(C)n(O)c(C)c(N)c1=O` [CPD-4, 3-amino-5-hexadecyl-1-hydroxy-2,6-dimethylpyridin-4(1H)-one], the “NADH oxidase (complex I, III, IV) activity (%)” value (shortened to “NADH oxidase … (%)”) ([2]; 5 μM compound) is reported as 12.7 ± 1.7%, the “NADH oxidase … (%)” value ([2]; 10 μM compound) is reported as 10.7 ± 1.3% and the “NADH oxidase … (%)” value ([2]; l μM compound) is reported as 17.1 ± 1^ %. For the same molecule, the “% of scavenging activity (ROS)” value (CEM leukemia cells; 0.25 μM) was 41.4 ± 14.9%, the “% of scavenging activity (ROS)” value (CEM leukemia cells; 2.5 μM) was 81.8 ± 3.7% and the “% of scavenging activity (ROS)” value (CEM leukemia cells; 10 μM) was 91.0 ± 1.5%. The viability at 0.1 µM (FRDA cell line; 0.1 μM) was 17 ± 5%, the viability at 0.5 µM (FRDA cell line; 0.5 μM) was 21 ± 9% and the viability at 2.5 µM (FRDA cell line; 2.5 μM) was 35 ± 9%. The “Scavenging activity (%) (lipid peroxidation)” value (“Scavenging activity (%)” below) (leukemia CEM lymphocytes; 1 μM) was 18 ± 2.2%, the “Scavenging activity (%)” value (leukemia CEM lymphocytes; 2.5 μM) was 52 ± 1.5% and the “Scavenging activity (%)” value (leukemia CEM lymphocytes; 5 μM) was 94 ± 0.2%.
